From US9611246B2, “Compositions, apparatus, systems, and methods for resolving electronic excited states” (HALLSTAR INNOVATIONS CORP., priority 2012, dated 2017)

Key:
Type in all cases: physicochemical
[1] = Stern-Volmer analysis of singlet oxygen suppression
From the text: The singlet oxygen phosphorescence intensity in the absence of the compound of Formulas I(a)(1), II(a)(1), II(d)(1), II(e)(1), or a mixture of II(b)(1) and II(c)(1) (I0) divided by the singlet oxygen phosphorescence intensity in the presence of compounds of Formula I/II(I) was plotted against the Formula I/II concentration (FIG. 16). From the slope of these plots (Stern-Volmer constant) and the lifetime of the quenched excited state, the bimolecular quenching constant can be extracted. If the excited state, which is quenched by the compound of Formula I(a)(1) (which causes a reduction in singlet oxygen production) is the singlet excited state of protoporphyrin IX then, using the previously measured fluorescence lifetime in acetonitrile (if =12.7 ns) a quenching rate constant of 2.4×10^9 M^−1 s^−1 is estimated. […] The rate constant derived from singlet oxygen phosphorescence quenching (FIG. 16) is only half of the more directly derived rate constant from fluorescence quenching, which could be caused by the difference in solvents or by some contribution of protoporphyrin triplet quenching by the compound of Formula I(a)(1). […] This rate constant is 5 times higher than the directly measured rate constant by laser flash photolysis (6.1×10^6 M^−1 s^−1). […] It must be noted that protoporphyrin IX triplet lifetime of ˜1 μs in air saturated DMSO was only estimated based on the directly measured triplet lifetime in air saturated acetonitrile and considering the different oxygen concentration in DMSO compared to acetonitrile. If necessary, the protoporphyrin IX triplet lifetime in air saturated DMSO can easily be measured by laser flash photolysis. The complex reaction mechanism is summarized in Scheme 1 (FIG. 17).
The biomolecular quenching rate constants for singlet excited state (kq^S) and triplet excited state (kq^T) quenching of PPIX by stabilizers in acetonitrile solutions at room temperature is shown in Table 4, as well and the Stern-Volmer rate constants.
Stern-Volmer constants are in direct correlation with the singlet oxygen suppression efficiency. Table 4 (above) summarizes the Stern-Volmer constants and PPIX singlet and triplet state quenching rate constants. Three different ranges of Stern-Volmer constants were observed. […] For compounds I(a)(1), II(d)(1), and the mixture of II(b)(1) and II(c)(1), Stern-Volmer constants of about 30 M^−1 were observed. For these three stabilizers, high PPIX singlet quenching rate constants (about 5×10^9 M^−1 s^−1) but low triplet quenching rate constants (<10^9 M^−1 s^−1) were observed. Here, the singlet oxygen suppression is probably dominated by PPIX singlet excited state quenching by these stabilizers. […] Because of the very high PPIX triplet quenching rate constant by compound II(a)(1) (3.2×10^9 M^−1 s^−1), the singlet oxygen suppression is probably dominated by triplet quenching. […] These kinetic parameters may include the MePPIX triplet and singlet lifetimes in air saturated and oxygen free CDCl3 and the bimolecular quenching constant by oxygen.

[2] = Protoporphyrin IX fluorescence lifetime quenching (singlet excited state); conditions: for bimolecular quenching rate constant for singlet excited state quenching (in words) / Singlet Quenching Rate Constant: PPIX; for Singlet Quenching Rate Constant: acetonitrile solutions at room temperature
Method: Fluorescence lifetime measurements are a convenient way to measure singlet state quenching by stabilizers. Protoporphyrin IX decay traces were recorded in the absence and presence of compound I(a)(1) and alkoxy […] (FIG. 3). […] The collected data shown in FIG. 3 were used to determine the bimolecular quenching rate constant for singlet excited state quenching by the compounds. The quenching rate constant may be directly extracted from the slope of the plot of the inverse fluorescence lifetime vs. the concentration of the two compounds (FIG. 4). […] The biomolecular quenching rate constants for singlet excited state (kq^S) and triplet excited state (kq^T) quenching of PPIX by stabilizers in acetonitrile solutions at room temperature is shown in Table 4, as well and the Stern-Volmer rate constants.

[3] = Voltammetry, redox potential with respect to Ag/AgCl reference electrode; conditions: vs Ag/AgCl; for second redox couple, oxidation peak: the small peak where two are given
From the text: For these experiments, dimethylsulfoxide (DMSO) and tetrabutylammonium perchlorate (TBAP) were obtained from Sigma Aldrich and used as received. […] Platinum wires (BASi MW-1032) of diameter 0.5 mm were employed for both the working electrode (WE) and counter electrode (CE). A dry-solvent tolerant Ag/AgCl reference electrode (RE) was obtained from eDAQ (Model ET072). The WE and CE were cleaned prior to each by first rinsing in acetone, then DI, followed by soaking in ˜50% aqueous H2SO4 for 10-20 minutes and then a final DI rinse. The RE electrode was cleaned prior to each use by an acetone rinse followed by DI rinse. Each sample solution was prepared in a fresh glass vial which had been rinsed with DI then acetone and allowed to dry Immediately after preparing each solution, it was purged with pure N2 gas for 15-20 minutes with the electrodes in place. Voltammetry data was collected shortly afterwards with an EG&G PAR 263 A Potentiostant/Galvanostat operated using a Labview-based control program. Scans were performed at various potential ranges between +2.0V and −2.0V (vs Ag/AgCl); all scan rates were constant at 200 mV/s.

[4] = Protoporphyrin IX triplet state quenching by laser flash photolysis; conditions: for Triplet Quenching Rate Constant: PPIX, acetonitrile solutions at room temperature
Method: To investigate if triplet states of protoporphyrin IX are quenched by the two compounds, laser flash photolysis experiments were performed. In these experiments, a deoxygenated acetonitrile solution of protoporphyrin IX is excited with short laser pulses from a Nd-YAG laser (355 nm, 5 ns pulse width). Difference absorption kinetic traces were recorded at different observation wavelengths (300 to 800 nm) and from these a transient absorption spectrum was constructed (FIG. 5A). […] In addition, two bands are observed at 320 and 440 nm, which are assigned to the triplet-triplet absorption of protoporphyrin IX. […] Triplet absorption kinetics at 440 nm may be utilized to obtain triplet quenching rate constants by the stabilizers. Triplet decay traces at 440 nm were recorded in the presence of different amounts of the alkoxy […], Formulas […])(1), and the mixture of II(b)(1) and II(c)(1). The decay traces were fitted to a first-order kinetics. The plot of these pseudo-first-order rate constants (inverse decay lifetime) vs. the concentration of the two compounds gives directly the bimolecular triplet quenching rate constant from the slope (FIG. 6). The biomolecular quenching rate constants for singlet excited state (kq^S) and triplet excited state (kq^T) quenching of PPIX by stabilizers in acetonitrile solutions at room temperature is shown in Table 4, as well and the Stern-Volmer rate constants.

[5] = Luminescence experiments in ethanol (room temperature and 77 K matrix)
Method: Because Formula II(a)(1) contains a ketone functionality, intersystem crossing into the triplet state could be promoted after photoexcitation due to spin-orbit coupling. Stabilizer triplet states could generate singlet oxygen. Low-temperature luminescence experiments in a ethanol matrix at 77 K were performed in search for phosphorescence of potential triplet states.
The quenching mechanism of protoporphyrin IX singlet excited states and triplet states by the compound of Formulas I, II, and III may be further clarified. A simple energy transfer mechanism would depend on the singlet and triplet energies of compounds of Formula I and protoporphyrin IX. To get information on excited state energies of the stabilizer, luminescence experiments were performed. […] However, weak luminescence was observed of the compound of Formula I(a)(1) in a frozen ethanol matrix at 77 K. The luminescence with maximum at 575 nm (FIG. 7c) originates from the compound of Formula I(a)(1), because the luminescence excitation spectrum (FIG. 7b) matches well the absorption spectrum of the compound of Formula I(a)(1) (FIG. 5a). The luminescence lifetime could not be determined, because of the weak signal intensity. […] If the luminescence at 575 nm is the fluorescence, then the Stoke's shift is unusually large. Independent of the assignment of the luminescence to the fluorescence or phosphorescence, this excited state energy is higher than singlet and triplet energies of protoporphyrin IX and rules out a simple energy transfer quenching mechanism. Another possible quenching mechanism is electron transfer quenching which would depend on the redox potentials of the protoporphyrin and the two quencher compounds.

[6] = 0.01 M in 0.1 M TBAP in DMSO, 200 mV/s

| Compound | rate constant from Stern-Volmer plot, if suppression entirely caused by triplet quenching ([1]; considering triplet lifetime ~1 μs in air saturated DMSO) | quenching rate constant from Stern-Volmer constant, if singlet excited state is quenched ([1]; using fluorescence lifetime 12.7 ns) | bimolecular quenching rate constant for singlet excited state quenching (in words) ([2]; acetonitrile) | Singlet Quenching Rate Constant [2] | rate constant of PPIX singlet quenching using fluorescence quenching ([2]; acetonitrile) | quenching of protoporphyrin IX fluorescence (fluorescence lifetime) ([2]; acetonitrile, alkoxy crylene even at 0.1 M) | first (or only) redox couple, oxidation peak [3, 6] | first (or only) redox couple, reduction peak [3, 6] | second redox couple, reduction peak [3, 6] | first (or only) redox couple, redox potential ([3]; estimated from the peaks) | second redox couple, redox potential ([3]; estimated from the peaks) | second redox couple, oxidation peak [3] | PPIX triplet quenching rate constant by laser flash photolysis [4] | Triplet Quenching Rate Constant [4] | luminescence maximum ([5]; ethanol matrix at 77 K) | fluorescence at room temperature ([5]; ethanol solution) | Stern-Volmer Constant of ^1O2 Suppression [1] | second redox couple, oxidation peak (large) [3] | PPIX triplet quenching (in words) ([4]; triplet decay at 440 nm) | luminescence quantum yield ([5]; ethanol matrix at 77 K) |
| --- | --- | --- | --- | --- | --- | --- | --- | --- | --- | --- | --- | --- | --- | --- | --- | --- | --- | --- | --- | --- |
| COC(=O)C(C#N)=C1c2ccccc2-c2ccccc21 [Formula I(a)(1)] | ~3e+07 M⁻¹ s⁻¹ | 2.4e+09 M⁻¹ s⁻¹ | high quenching rate constant | 5.3 10^9 M^−1s^−1 | 5.3e+09 M⁻¹ s⁻¹ | significantly quenches | −560 mV | −757 mV | −1297 mV | −658 mV | approximately −1199 mV | −1102 mV | 6.1e+06 M⁻¹ s⁻¹ | 0.0061 10^9 M^−1s^−1 | 575 nm | did not give detectable fluorescence | – | – | – | – |
| COC(=O)C(C#N)=C1c2ccccc2C(=O)c2ccccc21 [Formula II(a)(1)] | – | – | high quenching rate constant | 5.2 10^9 M^−1s^−1 | – | – | – | – | −1537 mV | – | −1501 mV | −1466 mV | 3.2e+09 M⁻¹ s⁻¹ | 3.2 10^9 M^−1s^−1 | 492 nm | – | 240 M⁻¹ | +430 mV | most efficient quencher | less than 1% |
